# Columns and labels:
# Assay type in all cases: in vivo
# panelists [1] = assay: Confirmation of umami in water (point score); settings: average point of 10 panelists, 0 no difference from control (water), 1 somewhat stronger, 2 stronger, 3 considerably stronger, 4 poor taste balance
# Protocol: As a comparative product, a solution was prepared by dissolving the comparative product 1 (2-(2-benzyloxyethyl)pyridine) to have the same concentration. Water with no addition was prepared as a control product. Well-trained 10 panelists tasted the solutions prepared by dissolving any the invention products 1 to 6 and the comparative product 1 for organoleptic evaluation of umami.
# Umami evaluation was based on the control product of water.
# panelists [2] = assay: Confirmation of umami imparting and saltiness enhancing effect in 0.3 mass % sodium chloride (point score); settings: average point of 10 panelists vs control, 0 no change, 1 slightly higher, 2 higher, 3 considerably higher, 4 extremely higher umami and saltiness, 5 bitter as lacking balance
# Protocol: An aqueous 0.3 mass % sodium chloride solution (control), and solutions of the invention products 1 to 6 each dissolved in a 0.3 mass % sodium chloride solution to have the concentration shown in Table 5 were prepared. As a comparative product, a solution was prepared by dissolving the comparative product 1 in 0.3 mass % sodium chloride. Well-trained 10 panelists tasted the solutions for organoleptic evaluation of umami impartment and saltiness enhancement.
# Umami and saltiness scores are as follows, based on the aqueous 0.3 mass % sodium chloride solution as a control. Each sample was given any of a point 0, no change from control; 1, slightly higher umami and saltiness than control; 2, higher umami and saltiness than control; 3, considerably higher umami and saltiness than control; 4, extremely higher umami and saltiness than control; and 5, bitter as lacking balance of umami and saltiness.
# panelists [3] = assay: Confirmation of umami in water (organoleptic evaluation of taste and flavor in words); settings: average of 5 panelists
# Protocol: A solution was prepared by dissolving 2-(3-benzyloxypropyl)pyridine (invention product 101) in water to have a concentration shown in Table 15. As a comparative product, a solution was prepared by dissolving 2-(2-benzyloxyethyl)pyridine (comparative product 1 prepared in Comparative Example 1) to have the same concentration. Well-trained 5 panelists tasted the solutions and non-added water for organoleptic evaluation of taste and flavor.
# The invention product 101 and the comparative product 1 were individually diluted with ethanol to have a proper concentration, and then further diluted with water to prepare an aqueous solution of 2-(3-benzyloxypropyl)pyridine (invention product 101 produced in Example 101) and that of 2-(2-benzyloxyethyl)pyridine (comparative product synthesized in Comparative Example 1) each having a concentration shown in the following Table 21. Well-trained panelists tasted the solution having a different concentration and non-added water for organoleptic evaluation in point of taste and flavor. […]
# panelists [4] = assay: Confirmation of umami imparting and saltiness enhancing effect in 0.3 mass % sodium chloride (evaluation in words); settings: average of 5 panelists, Example 108
# Protocol: An aqueous 0.3 mass % sodium chloride solution (control), and solutions of 2-(3-benzyloxypropyl)pyridine dissolved in a 0.3 mass % sodium chloride solution to have the concentration shown in Table 17 were prepared. As comparative products, an aqueous 0.3 mass % sodium chloride solution (control), and a solution of a comparative product, 2-(2-benzyloxyethyl)pyridine dissolved in a 0.3 mass % sodium chloride solution to have the same concentration were prepared. Well-trained 5 panelists tasted the solutions for organoleptic evaluation of umami impartment and saltiness enhancement.
# An aqueous 0.3 mass % sodium chloride solution (control), and solutions of the invention product 201 or the reference product 202 dissolved in a 0.3 mass % sodium chloride solution to have the concentration as 2-(3-benzyloxypropyl)pyridine therein shown in the following Table 23 were prepared. Well-trained 5 panelists tasted the solutions for organoleptic evaluation of umami impartment and saltiness enhancement.
structure (smiles),measurement,setting,value
"c1ccc(COCCc2ccccn2)cc1 [comparative product 1, 2-(2-benzyloxyethyl)pyridine, reference compound]",umami (average point),panelists [1]; 0.1 ppm in water,0.8
same,umami (average point),panelists [1]; 1 ppm in water,1.5
same,umami (average point),panelists [1]; 2 ppb in water,0.0
same,umami (average point),panelists [1]; 10 ppb in water,0.1
same,umami (average point),panelists [1]; 20 ppm in water,2.2
same,umami (average point),panelists [1]; 200 ppm in water,2.8
same,umami (average point),panelists [1]; 500 ppm in water,3.3
same,umami (average point),panelists [1]; 2000 ppm in water,3.8
same,umami and saltiness (average point),panelists [2]; 0.05 ppb in aqueous 0.3 mass % sodium chloride solution,0.0
same,umami and saltiness (average point),panelists [2]; 0.1 ppb in aqueous 0.3 mass % sodium chloride solution,0.0
same,umami and saltiness (average point),panelists [2]; 0.1 ppm in aqueous 0.3 mass % sodium chloride solution,2.1
same,umami and saltiness (average point),panelists [2]; 0.5 ppm in aqueous 0.3 mass % sodium chloride solution,3.0
same,umami and saltiness (average point),panelists [2]; 1 ppb in aqueous 0.3 mass % sodium chloride solution,0.6
same,umami and saltiness (average point),panelists [2]; 2 ppm in aqueous 0.3 mass % sodium chloride solution,3.4
same,umami and saltiness (average point),panelists [2]; 10 ppb in aqueous 0.3 mass % sodium chloride solution,1.5
same,umami and saltiness (average point),panelists [2]; 10 ppm in aqueous 0.3 mass % sodium chloride solution,4.2
same,umami and saltiness (average point),panelists [2]; 50 ppm in aqueous 0.3 mass % sodium chloride solution,4.8
same,Organoleptic Evaluation Taste,"panelists [3]; 0.1 ppm dissolved in water, Example 107",Slightly umami.
same,Organoleptic Evaluation Taste,"panelists [3]; 0.1 ppm, diluted with ethanol, then with water, Reference Example 201",Slightly umami.
same,Organoleptic Evaluation Taste,"panelists [3]; 1 ppm dissolved in water, Example 107",Weakly umami.
same,Organoleptic Evaluation Taste,"panelists [3]; 1 ppm, diluted with ethanol, then with water, Reference Example 201",Weakly umami.
same,Organoleptic Evaluation Flavor,"panelists [3]; 2 ppb dissolved in water, Example 107",Nothing at all.
same,Organoleptic Evaluation Flavor,"panelists [3]; 2 ppb, diluted with ethanol, then with water, Reference Example 201",Nothing at all.
same,Organoleptic Evaluation Flavor,"panelists [3]; 10 ppb dissolved in water, Example 107",Nothing at all.
same,Organoleptic Evaluation Flavor,"panelists [3]; 10 ppb, diluted with ethanol, then with water, Reference Example 201",Nothing at all.
same,Organoleptic Evaluation Taste,"panelists [3]; 200 ppm dissolved in water, Example 107",Strongly umami.
same,Organoleptic Evaluation Taste,"panelists [3]; 200 ppm, diluted with ethanol, then with water, Reference Example 201",Strongly umami.
same,Organoleptic Evaluation (umami impartment and saltiness enhancement),panelists [4]; 0.1 ppm in 0.3 mass % sodium chloride solution,Umami as compared with control.
same,Organoleptic Evaluation (umami impartment and saltiness enhancement),panelists [4]; 10 ppb in 0.3 mass % sodium chloride solution,Slightly umami as compared with control.

# Reference: US10894772B2, “Flavor modulator having pyridine derivative or salt thereof as active ingredient” (T. HASEGAWA CO., LTD., priority 2015, dated 2021)
